One assay deals with Candida albicans. As to the method:
(§1) Lyophilized peptides were weighed on a Microbalance (Mettler MT5) and dissolved in sterile water containing 0.01% acetic acid Tachyplesin was purchased from Bachem Ltd. (Bubendorf Switzerland).
(§2) The antimicrobial activities of the peptides were determined by the standard NCCLS broth microdilution method (see ref 1, below) examined in sterile 96-wells plates (Nunclon polystyrene microtiter plates) in a total volume of 100 μl. […] 10^6 colony forming units (CFU)/ml for bacteria or 5×10^3 CFU/ml for Candida. Aliquots (50 μl) of the innocula were added to 50 μl of MH broth containing the peptide in serial twofold dilutions. The microorganisms used were Escherichia coli (ATCC 25922), Pseudomnonas aeruginosa (P. aeruginosa) (ATCC 27853), Stahylococcus aureus (ATCC 29213 and ATCC 25923) and Candida albicans. A selected number of peptides were screened for activity against a larger panel of gram-negative strains. These strains were; Escherichia coli ATCC 43827 and clinical isolates of Pseudomonas (P. aeruginosa V07 14482, P. aeruginosa 15288, P. aeruginosa V02 15328 and P. aeruginosa V09 16085) and Acinetobacter (Acinetobacter V04 19905/1, Acinetobacter V12 21143/1 and Acinetobacter V12 21193/1).

The test system of assay [1] is Staphylococcus aureus ATCC 25923. To be noted: ATCC 25923. On the procedure: as §1, §2
Assay [2] relates to Escherichia coli (ATCC 25922). To be noted: ATCC 25922. As to the method:
as §1, §2

The test system of assay [3] is Staphylococcus aureus ATCC 29213. To be noted: ATCC 29213. On the procedure: as §1, §2

In brackets after ≈: the same amount, converted by molar mass. Where a SMILES comes first, the peptide text is derived from it. [ ]: non-standard residue; d: D form.

On to `CC(C)C[C@@H]1NC(=O)[C@H](CCCNC(=N)N)NC(=O)[C@H](CCCNC(=N)N)NC(=O)[C@H](CCCNC(=N)N)NC(=O)[C@H](Cc2ccc(O)cc2)NC(=O)[C@H](Cc2ccc(O)cc2)NC(=O)[C@H](CCCNC(=N)N)NC(=O)[C@@H]2CCCN2C(=O)[C@H]2CCCN2C(=O)[C@H](CCCNC(=N)N)NC(=O)[C@H](Cc2ccc(O)cc2)NC1=O` [Example 11] (cyclo(RYYRRRLYR[dP]P)), for which the “MIC Candida albicans” value in the assay on Candida albicans worked out at 100 µg/mL (≈ 63.4 µM). The “MIC Staphylococcus aureus ATCC 25923” value in assay [1] was found to be 100 µg/mL (≈ 63.4 µM). For the same compound, the “MIC Escherichia coli ATCC 25922” value in assay [2] came out at 25 µg/mL (≈ 15.8 µM). In assay [3], the “MIC Staphylococcus aureus ATCC 29213” value was 100 µg/mL (≈ 63.4 µM).
With `CC(C)C[C@@H]1NC(=O)[C@H](CCCNC(=N)N)NC(=O)[C@H](CCCNC(=N)N)NC(=O)[C@H](CCCNC(=N)N)NC(=O)[C@H](Cc2ccccc2)NC(=O)[C@H](Cc2ccccc2)NC(=O)[C@H](CC(C)C)NC(=O)[C@H](CCCNC(=N)N)NC(=O)[C@@H]2CCCN2C(=O)[C@H]2CCCN2C(=O)[C@H](CCCNC(=N)N)NC(=O)[C@H](Cc2ccccc2)NC1=O` [Example 36] (cyclo(RLFFRRRLFR[dP]P)), in the assay with Candida albicans, the “MIC Candida albicans” value was found to be 25 µg/mL (≈ 15.2 µM). The “MIC Staphylococcus aureus ATCC 25923” value in assay [1] came out at 50 µg/mL (≈ 30.4 µM). Besides, the “MIC Escherichia coli ATCC 25922” value in assay [2] was 25 µg/mL (≈ 15.2 µM). In addition, the “MIC Staphylococcus aureus ATCC 29213” value in assay [3] worked out at 25 µg/mL (≈ 15.2 µM).
Turning to `CC(C)C[C@@H]1NC(=O)[C@H](CCCNC(=N)N)NC(=O)[C@H](CCCNC(=N)N)NC(=O)[C@H](CCCNC(=N)N)NC(=O)[C@H](Cc2ccccc2)NC(=O)[C@H](Cc2ccccc2)NC(=O)[C@H](CC(C)C)NC(=O)[C@H](CC(C)C)NC(=O)[C@@H]2CCCN2C(=O)[C@H]2CCCN2C(=O)[C@H](CCCNC(=N)N)NC(=O)[C@H](Cc2ccccc2)NC1=O` [Example 40] (cyclo(LLFFRRRLFR[dP]P)), the “MIC Candida albicans” value in the assay on Candida albicans came to 25 µg/mL (≈ 15.6 µM). For the same compound, the “MIC Staphylococcus aureus ATCC 25923” value in assay [1] amounted to 50 µg/mL (≈ 31.2 µM). The “MIC Escherichia coli ATCC 25922” value in assay [2] was found to be 25 µg/mL (≈ 15.6 µM). Moreover, in assay [3], the “MIC Staphylococcus aureus ATCC 29213” value stood at 25 µg/mL (≈ 15.6 µM).
Regarding `CC(C)C[C@@H]1NC(=O)[C@H](Cc2ccccc2)NC(=O)[C@H](CC(C)C)NC(=O)[C@H](CCCNC(=N)N)NC(=O)[C@@H]2CCCN2C(=O)[C@H]2CCCN2C(=O)[C@H](CC(C)C)NC(=O)[C@H](CCCNC(=N)N)NC(=O)[C@H](Cc2ccccc2)NC(=O)[C@H](Cc2ccccc2)NC(=O)[C@H](CCCNC(=N)N)NC(=O)[C@H](CCCNC(=N)N)NC(=O)[C@H](CCCNC(=N)N)NC1=O` [Example 59] (cyclo(RLFLRRRFFRL[dP]P)), the “MIC Candida albicans” value with Candida albicans was 25 µg/mL (≈ 14.2 µM). In assay [1], the “MIC Staphylococcus aureus ATCC 25923” value stood at 50 µg/mL (≈ 28.5 µM). Moreover, the “MIC Escherichia coli ATCC 25922” value in assay [2] came to 4.7 µg/mL (≈ 2.68 µM). Also, the “MIC Staphylococcus aureus ATCC 29213” value in assay [3] came out at 25 µg/mL (≈ 14.2 µM).
For the compound `CC(C)C[C@@H]1NC(=O)[C@H](Cc2ccccc2)NC(=O)[C@H](CC(C)C)NC(=O)[C@H](Cc2ccccc2)NC(=O)[C@@H]2CCCN2C(=O)[C@H]2CCCN2C(=O)[C@H](CCCNC(=N)N)NC(=O)[C@H](CCCNC(=N)N)NC(=O)[C@H](Cc2ccccc2)NC(=O)[C@H](CC(C)C)NC(=O)[C@H](CCCNC(=N)N)NC(=O)[C@H](CCCNC(=N)N)NC(=O)[C@H](CCCNC(=N)N)NC1=O` [Example 63] (cyclo(FLFLRRRLFRR[dP]P)), the “MIC Candida albicans” value in the assay with Candida albicans turned out to be 12.5 µg/mL (≈ 7.12 µM). In assay [1], the “MIC Staphylococcus aureus ATCC 25923” value amounted to 25 µg/mL (≈ 14.2 µM). Moreover, the “MIC Escherichia coli ATCC 25922” value in assay [2] turned out to be 6.2 µg/mL (≈ 3.53 µM). The “MIC Staphylococcus aureus ATCC 29213” value in assay [3] was 12.5 µg/mL (≈ 7.12 µM).

The values are drawn from patent US7253146B2, “Template-fixed peptidomimetics with antimicrobial activity” (Polyphor Ltd, priority 2001, dated 2007).
